Common to all, as to assay type: biochemical
Test [1] addresses T1, human HDAC3/SMRT heterodimer (Homo sapiens, UniProt O15379).
T1 construct: Full length human HDAC3-FLAG was expressed in HEK-293F cells along with SMRT; host or cells: HEK-293F cells
The test is described as follows: Human HDAC enzyme inhibitor Fluor-de-Lys assay, HDAC3/SMRT. Conditions: HDAC3/SMRT 0.3 nM enzyme, 20 μM substrate BML-KI104, 10 μM IP4, 3 h pre-incubation, 60 min reaction; read-out: HDAC3_IC50. An excerpt:
(§1) Recombinant human HDAC8 (catalog number BML-SE145-0100) and HDAC10 (catalog number BML-SE559-0050) enzymes, HDAC substrates BML-KI104 and BML-KI178, and HDAC developer solutions BML-KI105 and BML-KI176 were purchased from Enzo Life Sciences (Farmingdale, NY). Recombinant human HDAC5 and HDAC11 were purchased from BPS Bioscience (San Diego, CA)(catalog numbers 50045 and 50021). Substrate Boc-Lys(TFA)-AMC was obtained from Bachem (Bupendorf, Switzerland) (catalog number 1-1985). HDAC inhibitor suberoylanilide hydroxamic acid (SAHA) was obtained from Indofine (Hillsborough Township, NJ) and trichostatin A (TSA) was obtained from Sigma-Aldrich (St. Louis, MO). […] HEPES pH 8.0 was obtained from Boston BioProducts (Ashland, MA), Tween-20 from Fisher Scientific (Hampton, NH)(catalog number BP337), TCEP from Calbiochem and 7.5% bovine serum albumin (BSA) from Life Technologies (Carlsbad, CA) (catalog number 15260037). 384-well, black assay plates were obtained from Corning (Corning, NY) (catalog number 3575).
(§2) Recombinant human HDAC1, HDAC2, and HDAC3/SMRT heterodimer were prepared by Merck Research Laboratories. […] The eluted protein was then passed over an anti-HDAC1 immunoaffinity column to remove any complexes containing HDAC1. […]
(§3) The histone deacetylase activities of HDAC1, HDAC2, HDAC3, HDAC6, and HDAC8 were measured in modified Fluor-de-Lys assays in 384-well format. In this assay, HDAC enzymes are initially incubated with an ε-acetyl (or -trifluoroacetyl)-L-lysine-containing substrate with a C-terminal amide having aminomethylcoumarin as the amine component. HDACs cleave the ε-acetyl group, rendering the resulting product susceptible to AMC cleavage by trypsin. The released AMC is then detected by its fluorescence.
(§4) The HDAC 1, 2 assays employed buffer A, which contained 20 mM HEPES, pH 8.0, 1 mM MgCl2, 137 mM NaCl, 2.7 mM KCl, 0.05% BSA. The HDAC3/SMRT assay employed buffer B, consisting of 20 mM HEPES, pH 8.0, 1 mM MgCl2, 50 mM NaCl, 2.7 mM KCl, 0.05% BSA, 0.005% Tween 20, and 10 μM IP4. The HDAC6 assay employed buffer C, consisting of 20 mM HEPES, pH 8.0, 1 mM MgCl2, 137 mM NaCl, 2.7 mM KCl, 0.5 mM TCEP (Calbiochem) and 0.05% BSA. The HDAC8 assay employed buffer D, consisting of 20 mM HEPES, pH 8.0, 1 mM MgCl2, 100 mM NaCl, 20 mM KCl, 0.1% n-octyl-β-D-glucoside (Anatrace, Maumee, OH) and 0.05% BSA. All steps were performed at room temperature (23° C.). The assay was performed by pre-incubating serial dilutions of test compounds with the target HDAC prior to initiation with substrate. Each compound was titrated in a 10-point dose response, using a 1:3 fold dilution scheme, with 0.15 ul of solution added by ECHO555 to the plate, followed by the addition of 20 μl of the appropriate HDAC isoform diluted in appropriate assay buffer. […] Final conditions used for each assay were: 1. HDAC 1, 0.3 nM total enzyme, 20 μM substrate BML-K1104; 2. HDAC 2, 1.5 nM total enzyme, 40 μM substrate BML-K1104; 3. HDAC 3/SMRT, 0.3 nM total enzyme, 20 μM substrate BML-K1104; 4. HDAC 6, 1.3 nM total enzyme, 2.5 μM substrate BML-K1104; 5. HDAC 8, 1.3 nM total enzyme, 200 μM substrate BML-K1178; the final high dose of test compound was 30 μM. […] The reactions were stopped and developed by addition of 30 ul of HDAC developer solution containing a saturating level of HDAC inhibitor as follows: 1.

Another test deals with T2, human HDAC2 (Homo sapiens, UniProt Q92769).
T2 construct: Full length human HDAC2-FLAG was expressed in baculovirus infected Sf9 cells; host or cells: baculovirus infected Sf9 cells
Kind of test: Human HDAC enzyme inhibitor Fluor-de-Lys assay, HDAC2. Conditions: 1.5 nM enzyme, 40 μM substrate BML-KI104, 3 h pre-incubation, 60 min reaction; read-out: HDAC2_IC50.
Text: as §1, §2, §3, §4

In another test the target is T3, human HDAC1 (Homo sapiens, UniProt Q13547).
T3 construct: Full length human HDAC1-FLAG was stably expressed in HEK-293F cells; host or cells: HEK-293F cells
The test is described as follows: Human HDAC enzyme inhibitor Fluor-de-Lys assay, HDAC1. Conditions: 0.3 nM enzyme, 20 μM substrate BML-KI104, 3 h pre-incubation, 60 min reaction; read-out: HDAC1_IC50.
Text: as §1, §2, §3, §4

SMILES strings stand for the structures.

T3 sequence (Q13547 whole entry): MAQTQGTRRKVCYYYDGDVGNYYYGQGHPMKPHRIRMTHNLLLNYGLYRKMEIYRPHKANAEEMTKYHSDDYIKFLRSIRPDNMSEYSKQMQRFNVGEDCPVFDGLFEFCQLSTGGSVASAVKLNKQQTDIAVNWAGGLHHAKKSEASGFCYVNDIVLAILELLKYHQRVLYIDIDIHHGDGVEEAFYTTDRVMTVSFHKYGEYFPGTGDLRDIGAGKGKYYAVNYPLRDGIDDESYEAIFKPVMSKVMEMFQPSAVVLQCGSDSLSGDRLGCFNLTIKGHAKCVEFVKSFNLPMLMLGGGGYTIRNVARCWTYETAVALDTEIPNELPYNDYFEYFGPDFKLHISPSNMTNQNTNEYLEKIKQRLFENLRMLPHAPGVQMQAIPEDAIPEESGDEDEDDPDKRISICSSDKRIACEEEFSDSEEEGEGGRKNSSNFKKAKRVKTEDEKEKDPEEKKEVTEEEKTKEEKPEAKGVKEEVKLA
T2 sequence (Q92769 whole entry): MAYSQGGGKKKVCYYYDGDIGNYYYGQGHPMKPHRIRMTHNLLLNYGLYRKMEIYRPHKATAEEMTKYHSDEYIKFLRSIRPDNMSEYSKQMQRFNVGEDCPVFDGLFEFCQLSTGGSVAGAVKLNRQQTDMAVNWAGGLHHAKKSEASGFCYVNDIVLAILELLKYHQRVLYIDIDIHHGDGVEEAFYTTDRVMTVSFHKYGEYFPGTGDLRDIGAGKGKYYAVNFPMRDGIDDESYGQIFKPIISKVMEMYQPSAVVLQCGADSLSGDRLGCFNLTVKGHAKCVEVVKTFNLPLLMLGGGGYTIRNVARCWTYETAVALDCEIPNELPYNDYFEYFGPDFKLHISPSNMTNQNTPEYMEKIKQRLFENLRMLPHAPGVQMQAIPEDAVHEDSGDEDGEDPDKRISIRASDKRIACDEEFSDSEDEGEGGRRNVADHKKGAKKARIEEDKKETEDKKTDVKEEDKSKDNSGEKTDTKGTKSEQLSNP
T1 sequence (O15379 whole entry): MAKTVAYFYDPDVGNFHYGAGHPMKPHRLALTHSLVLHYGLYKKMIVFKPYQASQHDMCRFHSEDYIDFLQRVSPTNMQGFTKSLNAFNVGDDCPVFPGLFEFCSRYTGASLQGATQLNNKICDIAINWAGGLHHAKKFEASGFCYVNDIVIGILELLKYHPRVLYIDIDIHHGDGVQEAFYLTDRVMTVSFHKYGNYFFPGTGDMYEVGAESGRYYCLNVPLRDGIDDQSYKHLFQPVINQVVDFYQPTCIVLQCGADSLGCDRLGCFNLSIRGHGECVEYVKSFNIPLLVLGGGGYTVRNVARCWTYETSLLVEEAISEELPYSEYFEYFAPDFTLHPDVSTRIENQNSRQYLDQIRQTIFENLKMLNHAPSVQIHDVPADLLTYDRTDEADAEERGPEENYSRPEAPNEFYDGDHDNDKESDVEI
T1 sequence (Q9Y618 1-899 partner limits assumed): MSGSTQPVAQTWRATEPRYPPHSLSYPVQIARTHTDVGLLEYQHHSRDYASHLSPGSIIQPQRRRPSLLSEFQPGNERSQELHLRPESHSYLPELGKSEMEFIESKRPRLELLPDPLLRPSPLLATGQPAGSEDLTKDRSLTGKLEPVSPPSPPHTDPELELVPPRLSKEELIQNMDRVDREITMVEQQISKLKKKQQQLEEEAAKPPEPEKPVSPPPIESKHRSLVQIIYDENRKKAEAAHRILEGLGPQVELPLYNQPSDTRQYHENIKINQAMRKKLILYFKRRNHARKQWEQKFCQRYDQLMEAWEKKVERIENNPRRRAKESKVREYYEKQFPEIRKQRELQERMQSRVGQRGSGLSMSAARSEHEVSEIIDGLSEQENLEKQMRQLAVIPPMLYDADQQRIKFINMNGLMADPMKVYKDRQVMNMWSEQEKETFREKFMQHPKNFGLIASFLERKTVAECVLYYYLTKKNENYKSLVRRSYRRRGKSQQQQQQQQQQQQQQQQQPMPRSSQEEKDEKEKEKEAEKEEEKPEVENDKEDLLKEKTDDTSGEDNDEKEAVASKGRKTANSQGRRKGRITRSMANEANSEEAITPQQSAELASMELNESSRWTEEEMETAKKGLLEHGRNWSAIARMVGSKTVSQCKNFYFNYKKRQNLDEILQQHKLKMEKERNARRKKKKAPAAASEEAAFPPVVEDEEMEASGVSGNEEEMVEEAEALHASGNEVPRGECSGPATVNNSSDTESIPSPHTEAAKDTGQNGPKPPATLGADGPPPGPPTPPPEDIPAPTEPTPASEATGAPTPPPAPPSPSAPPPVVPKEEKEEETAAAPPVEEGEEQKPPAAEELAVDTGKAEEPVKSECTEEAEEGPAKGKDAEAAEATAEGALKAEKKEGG

As to `COc1nc2ccccc2cc1-c1cnc([C@H](COCCCC(=O)c2ncco2)NC(=O)CN(C)C)[nH]1` [Compound 13, N-{(1R)-1-[5-(2-methoxyquinolin-3-yl)-1H-imidazol-2-yl]-2-[4-(1,3-oxazol-2-yl)-4-oxobutoxy]ethyl}-N~2~,N~2~- dimethylglycinamide], the IC50 turned out to be 3.8 nM in test [1], 14.4 nM on human HDAC2 and 2.7 nM on human HDAC1.
The matching figures for `COc1nc2ccccc2cc1-c1cnc([C@H](COCCCC(=O)c2ncco2)NC(=O)C23CCN(CC2)CC3)[nH]1` [Compound 12, N-{(1R)-1-[5-(2-methoxyquinolin-3-yl)-1H-imidazol-2-yl]-2-[4-(1,3-oxazol-2-yl)-4-oxobutoxy]ethyl}-1-azabicyclo[2.2.2]octane-4-carboxamide]: 7.7 nM, 29.7 nM and 4.7 nM.
The matching figures for `COc1cc2nc(C)ccc2cc1-c1cnc([C@H](COCCCC(=O)c2cc(C)on2)NC(=O)[C@H]2CC23CCN(C)CC3)[nH]1` [Compound 20, (1S)-N-{(1R)-1-[5-(7-methoxy-2-methylquinolin-6-yl)-1H-imidazol-2-yl]-2-[4-(5-methylisoxazol-3-yl)-4-oxobutoxy]ethyl}-6-methyl-6-azaspiro[2.5]octane-1-carboxamide]: 0.8 nM, 3.8 nM and 3.7 nM.
For `Cc1ccc2cc(-c3cnc([C@H](CSCCCC(=O)c4ncco4)NC(=O)[C@H]4CC45CCN(C)CC5)[nH]3)ccc2n1` [Compound 21, (1S)-6-methyl-N-[(1R)-1-[5-(2-methylquinolin-6-yl)-1H-imidazol-2-yl]-2-{[4-(1,3-oxazol-2-yl)-4-oxobutyl]sulfanyl}ethyl]-6-azaspiro[2.5]octane-1-carboxamide], the IC50 in test [1] amounted to 1.5 nM; on human HDAC2, 2.9 nM; at human HDAC1, 1.5 nM.
Consider `COc1nc2ccccc2cc1-c1cnc([C@H](COCCCC(=O)c2ccon2)NC(=O)CN(C)C)[nH]1` [Compound 14, N-{(1R)-2-(4-isoxazol-3-yl-4-oxobutoxy)-1-[5-(2-methoxyquinolin-3-yl)-1H-imidazol-2-yl]ethyl}-N~2~,N~2~- dimethylglycinamide], for which the IC50 came to 2.2 nM in test [1], 3.2 nM at human HDAC2 and 1.5 nM at human HDAC1.
Regarding `CCC(=O)CCCOC[C@H](NC(=O)C12CCN(CC1)CC2)c1ncc(-c2cc3ccccc3nc2OC)[nH]1` [Compound 6, N-{(1R)-1-[5-(2-methoxyquinolin-3-yl)-1H-imidazol-2-yl]-2-[(4-oxohexyl)oxy]ethyl}-1-azabicyclo[2.2.2]octane-4-carboxamide], the results for the IC50 (in test [1]; at human HDAC2) were 87.3 nM and 925 nM, respectively.
As to `CN1CC(C(=O)N[C@@H](COCCCC(=O)c2ccon2)c2ncc(-c3ccccc3F)[nH]2)C1` [Compound 15, N-[(1R)-1-[5-(2-fluorophenyl)-1H-imidazol-2-yl]-2-(4-isoxazol-3-yl-4-oxobutoxy)ethyl]-1-methylazetidine-3-carboxamide], the figures for the IC50 (in test [1]; on human HDAC2; on human HDAC1) were 1.6 nM, 31.3 nM and 4 nM, respectively.
Consider `CN1CCC2(CC1)C[C@@H]2C(=O)N[C@@H](COCCCC(=O)c1ccon1)c1[nH]c(-c2ccc(F)cc2)nc1Cl` [Compound 18, (1S)-N-[(1R)-1-[4-chloro-2-(4-fluorophenyl)-1H-imidazol-5-yl]-2-(4-isoxazol-3-yl-4-oxobutoxy)ethyl]-6-methyl-6-azaspiro[2.5]octane-1-carboxamide], for which the IC50 in test [1] is 1.3 nM; at human HDAC2 it was 8.1 nM; on human HDAC1, 1.4 nM.
The matching figures for `CN(C)CC(=O)N[C@@H](COCCCC(=O)c1ccon1)c1[nH]c(-c2ccc(F)cc2)nc1Cl` [Compound 17, N-[(1R)-1-[4-chloro-2-(4-fluorophenyl)-1H-imidazol-5-yl]-2-(4-isoxazol-3-yl-4-oxobutoxy)ethyl]-N~2~,N~2~- dimethylglycinamide]: 17 nM, 106 nM and 18.6 nM.
The matching figures for `CNC(=O)C(=O)CCCOC[C@H](NC(=O)C12CCN(CC1)CC2)c1ncc(-c2cc3ccccc3nc2OC)[nH]1` [Compound 9, N-[(1R)-1-[5-(2-methoxyquinolin-3-yl)-1H-imidazol-2-yl]-2-{[5-(methylamino)-4,5-dioxopentyl]oxy}ethyl]-1-azabicyclo[2.2.2]octane-4-carboxamide]: 1.5 nM, 1.5 nM and 1.5 nM.
The matching figures for `COc1nc2ccccc2cc1-c1cnc([C@H](COCCCC(=O)c2ncco2)NC(=O)c2cncs2)[nH]1` [Compound 10, N-{(1R)-1-[5-(2-methoxyquinolin-3-yl)-1H-imidazol-2-yl]-2-[4-(1,3-oxazol-2-yl)-4-oxobutoxy]ethyl}-1,3-thiazole-5-carboxamide]: 3.6 nM, 25.9 nM and 6.6 nM.
On to `N[C@@H](COCCCC(=O)c1ccon1)c1ncc(-c2ccccc2F)[nH]1` [Compound 2, (R)-4-(2-amino-2-(5-(2-fluorophenyl)-1H-imidazol-2-yl)ethoxy)-1-(isoxazol-3-yl)butan-1-one], for which the IC50 in test [1] is 272 nM; on human HDAC2 it was at least 900 nM; at human HDAC1, 602 nM.
The matching figures for `CNC(=O)C(=O)CCCOC[C@H](NC(=O)c1cncs1)c1ncc(-c2cc3ccccc3nc2OC)[nH]1` [Compound 8, N-[(1R)-1-[5-(2-methoxyquinolin-3-yl)-1H-imidazol-2-yl]-2-{[5-(methylamino)-4,5-dioxopentyl]oxy}ethyl]-1,3-thiazole-5-carboxamide]: 1.5 nM, 2.5 nM and 1.5 nM.
The matching figures for `CN1CC(C(=O)N[C@@H](COCCCC(=O)c2ccon2)c2[nH]c(-c3ccc(F)cc3)nc2Cl)C1` [Compound 16, N-[(1R)-1-[4-chloro-2-(4-fluorophenyl)-1H-imidazol-5-yl]-2-(4-isoxazol-3-yl-4-oxobutoxy)ethyl]-1-methylazetidine-3-carboxamide]: 9.2 nM, 56.7 nM and 11.8 nM.
For the molecule `CCC(=O)CCCOC[C@H](NC(=O)c1cncs1)c1ncc(-c2cc3ccccc3nc2OC)[nH]1` [Compound 5, N-{(1R)-1-[5-(2-methoxyquinolin-3-yl)-1H-imidazol-2-yl]-2-[(4-oxohexyl)oxy]ethyl}-1,3-thiazole-5-carboxamide], the IC50 at human HDAC2 amounted to 1160 nM.

The values are drawn from US12365674B2, “Inhibitors of histone deacetylase useful for the treatment or prevention of HIV infection” (Merck Sharp & Dohme LLC, priority 2019, dated 2025).
